# Laboratory results as given in PubChem BioAssay AID256 (DTP/NCI, 2004).
# Several values for one entry are separate records, joined by “and”; a condition that tells them apart may be missing. Equal entries are not always repeated. Toxic doses and inconclusive results are not listed.
# Tested on: CD2F1 mice, L1210 leukemia ip, survival T/C
# Assay: NCI In Vivo Anticancer Drug Screen. Data for tumor model L1210 Leukemia (intraperitoneal) in CD2F1 (CDF1) mice
# Settings: higher = longer survival
# Method in brief: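 Each value reflects a quotient of treated over vehicle control outcomes in mice with a transplanted tumor.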
# [1] = endpoint: mean survival time, dose: 12.5 mg/kg/injection, schedule: Q04DX002 (ip), vehicle: saline with Tween-80
# [2] = endpoint: mean survival time, dose: 100.0 mg/kg/injection, schedule: Q04DX003 (ip), vehicle: saline with Tween-80
# [3] = endpoint: mean survival time, dose: 200.0 mg/kg/injection, schedule: Q04DX003 (ip), vehicle: saline with Tween-80
# [4] = endpoint: mean survival time, dose: 400.0 mg/kg/injection, schedule: Q04DX003 (ip), vehicle: saline with Tween-80
# [5] = endpoint: mean survival time, dose: 100.0 mg/kg/injection, schedule: Q01DX009 (ip), vehicle: saline
# [6] = endpoint: mean survival time, dose: 100.0 mg/kg/injection, schedule: Q01DX001 (ip), vehicle: saline with Tween-80
# [7] = endpoint: mean survival time, dose: 100.0 mg/kg/injection, schedule: Q01DX009 (ip), vehicle: saline with Tween-80
# [8] = endpoint: mean survival time, dose: 100.0 mg/kg/injection, schedule: Q04DX002 (ip), vehicle: saline with Tween-80
# [9] = endpoint: mean survival time, dose: 200.0 mg/kg/injection, schedule: Q01DX001 (ip), vehicle: saline with Tween-80
# [10] = endpoint: mean survival time, dose: 200.0 mg/kg/injection, schedule: Q01DX009 (ip), vehicle: saline with Tween-80
# [11] = endpoint: mean survival time, dose: 200.0 mg/kg/injection, schedule: Q04DX002 (ip), vehicle: saline with Tween-80
# [12] = endpoint: mean survival time, dose: 400.0 mg/kg/injection, schedule: Q01DX001 (ip), vehicle: saline with Tween-80
# [13] = endpoint: mean survival time, dose: 400.0 mg/kg/injection, schedule: Q01DX009 (ip), vehicle: saline with Tween-80
# [14] = endpoint: mean survival time, dose: 400.0 mg/kg/injection, schedule: Q04DX002 (ip), vehicle: saline with Tween-80
# [15] = endpoint: mean survival time, dose: 25.0 mg/kg/injection, schedule: Q04DX002 (ip), vehicle: saline with Tween-80
# [16] = endpoint: mean survival time, dose: 50.0 mg/kg/injection, schedule: Q04DX002 (ip), vehicle: saline with Tween-80
# [17] = endpoint: mean survival time, dose: 50.0 mg/kg/injection, schedule: Q01DX009 (ip), vehicle: saline with Tween-80
# [18] = endpoint: mean survival time, dose: 100.0 mg/kg/injection, schedule: Q01DX001 (ip), vehicle: saline
smiles,measurement,setting,value
CC(O)(P(=O)(O)O)P(=O)(O)O.[NH-]CC[NH-].[NH-]CC[NH-].[Pt+2].[Pt+2],T/C,"endpoint: mean survival time, dose: 3.13 mg/kg/injection, schedule: Q04DX003 (ip), vehicle: distilled water + Tween-80",104 % of control
same,T/C,"endpoint: mean survival time, dose: 6.25 mg/kg/injection, schedule: Q04DX003 (ip), vehicle: distilled water + Tween-80",104 % of control
same,T/C,"endpoint: mean survival time, dose: 12.5 mg/kg/injection, schedule: Q04DX003 (ip), vehicle: distilled water + Tween-80",88 % of control
same,T/C,"endpoint: mean survival time, dose: 25.0 mg/kg/injection, schedule: Q04DX003 (ip), vehicle: distilled water + Tween-80",103 % of control
same,T/C,"endpoint: mean survival time, dose: 50.0 mg/kg/injection, schedule: Q04DX003 (ip), vehicle: distilled water + Tween-80",119 % of control
same,T/C,"endpoint: mean survival time, dose: 100.0 mg/kg/injection, schedule: Q04DX003 (ip), vehicle: distilled water + Tween-80",124 % of control
same,T/C,"endpoint: mean survival time, dose: 200.0 mg/kg/injection, schedule: Q04DX003 (ip), vehicle: distilled water + Tween-80",111 % of control
NC(=S)N/N=C/c1ccc(F)cn1,T/C,"endpoint: mean survival time, dose: 11.0 mg/kg/injection, schedule: Q04DX003 (ip), vehicle: saline with Tween-80",105 % of control
same,T/C,[1],118 % of control
same,T/C,"endpoint: mean survival time, dose: 16.5 mg/kg/injection, schedule: Q04DX003 (ip), vehicle: saline with Tween-80",110 % of control
same,T/C,"endpoint: mean survival time, dose: 25.0 mg/kg/injection, schedule: Q04DX003 (ip), vehicle: saline with Tween-80",110 % of control
COC(=O)C(C)C1(O)CCCCC1 (stereo not drawn),T/C,[2],97 % of control
same,T/C,[3],95 % of control
same,T/C,[4],98 % of control
Cc1ccnc(NS(=O)(=O)c2ccc(N)cc2)n1,T/C,[5],100 % of control
same,T/C,"endpoint: mean survival time, dose: 200.0 mg/kg/injection, schedule: Q01DX009 (ip), vehicle: saline",96 % of control
same,T/C,"endpoint: mean survival time, dose: 400.0 mg/kg/injection, schedule: Q01DX009 (ip), vehicle: saline",97 % of control
COc1cc([N+](=O)[O-])ccc1NC(=O)NCCc1ccccc1,T/C,[6],86 % of control and 97 % of control
same,T/C,[7],90 % of control and 91 % of control
same,T/C,[8],95 % of control
same,T/C,[2],89 % of control
same,T/C,[9],86 % of control and 91 % of control
same,T/C,[10],91 % of control and 103 % of control
same,T/C,[11],95 % of control
same,T/C,[3],91 % of control
same,T/C,[12],91 % of control
same,T/C,[13],90 % of control and 91 % of control
same,T/C,[14],90 % of control
same,T/C,[4],89 % of control
CC1SC(C(C)(C)C)SC(C)C1C(C)(C)C (stereo not drawn),T/C,[1],102 % of control
same,T/C,[15],102 % of control
same,T/C,[16],102 % of control
O=C1Cc2c(nc[nH]c2=O)N1,T/C,"endpoint: median survival time, dose: 50.0 mg/kg/injection, schedule: Q01DX005 (ip), vehicle: saline",101 % of control
same,T/C,"endpoint: median survival time, dose: 100.0 mg/kg/injection, schedule: Q01DX005 (ip), vehicle: saline",97 % of control
same,T/C,"endpoint: median survival time, dose: 200.0 mg/kg/injection, schedule: Q01DX005 (ip), vehicle: saline",92 % of control
CC1CCCCN1C(=O)Nc1c(Cl)cccc1Cl (stereo not drawn),T/C,[17],98 % of control
same,T/C,[7],105 % of control
same,T/C,[10],94 % of control
O=C(O)c1ccc(CC2CCC2)cc1,T/C,[8],96 % of control
same,T/C,[11],96 % of control
same,T/C,[14],89 % of control
[NH-]C1CCCCC1[NH-].[NH-]C1CCCCC1[NH-].[Ni] (stereo not drawn),T/C,[8],110 % of control
ONc1ccccn1,T/C,"endpoint: mean survival time, dose: 25.0 mg/kg/injection, schedule: Q01DX009 (ip), vehicle: saline",101 % of control
same,T/C,"endpoint: mean survival time, dose: 50.0 mg/kg/injection, schedule: Q01DX009 (ip), vehicle: saline",96 % of control
same,T/C,"endpoint: mean survival time, dose: 50.0 mg/kg/injection, schedule: Q04DX003 (ip), vehicle: saline",98 % of control
same,T/C,[5],95 % of control
same,T/C,"endpoint: mean survival time, dose: 100.0 mg/kg/injection, schedule: Q04DX003 (ip), vehicle: saline",98 % of control
CC(=O)OC(C(=O)NC(CC(C)C)C(=O)O)c1ccccc1 (stereo not drawn),T/C,[2],98 % of control
same,T/C,[3],95 % of control
same,T/C,[4],103 % of control
CC12CCC(C(CO)C1=O)C2(C)C (stereo not drawn),T/C,"endpoint: mean survival time, dose: 75.0 mg/kg/injection, schedule: Q01DX001 (ip), vehicle: saline",98 % of control
same,T/C,"endpoint: mean survival time, dose: 150.0 mg/kg/injection, schedule: Q01DX001 (ip), vehicle: saline",98 % of control
same,T/C,"endpoint: mean survival time, dose: 300.0 mg/kg/injection, schedule: Q01DX001 (ip), vehicle: saline",98 % of control
C=CC[n+]1ccc2ccccc2c1,T/C,"endpoint: mean survival time, dose: 100.0 mg/kg/injection, schedule: Q04DX003 (ip), vehicle: saline sonified",97 % of control
O=C(Nc1ccccc1)c1ccccc1C1(O)c2ccccc2-c2ccccc21,T/C,[7],88 % of control
same,T/C,[10],92 % of control
same,T/C,[13],91 % of control
Cc1ccccc1N=C=S,T/C,"endpoint: mean survival time, dose: 12.5 mg/kg/injection, schedule: Q01DX009 (ip), vehicle: saline with Tween-80",98 % of control
same,T/C,"endpoint: mean survival time, dose: 25.0 mg/kg/injection, schedule: Q01DX009 (ip), vehicle: saline with Tween-80",96 % of control
same,T/C,[17],106 % of control
CN(C)S(=O)(=O)Oc1ccc(N)cc1,T/C,[2],103 % of control
same,T/C,[3],101 % of control
same,T/C,[4],104 % of control
O=C(Oc1cccc(O)c1)c1ccccc1,T/C,[7],104 % of control
same,T/C,[2],89 % of control
same,T/C,[10],100 % of control
same,T/C,[3],92 % of control
same,T/C,[13],96 % of control
same,T/C,[4],101 % of control
C#CCOC(=O)Nc1ccccc1Cl,T/C,"endpoint: mean survival time, dose: 100.0 mg/kg/injection, schedule: Q04DX003 (ip), vehicle: Klucel (hydroxypropylcellulose) (HPC)",93 % of control
same,T/C,"endpoint: mean survival time, dose: 200.0 mg/kg/injection, schedule: Q04DX003 (ip), vehicle: Klucel (hydroxypropylcellulose) (HPC)",105 % of control
same,T/C,"endpoint: mean survival time, dose: 400.0 mg/kg/injection, schedule: Q04DX003 (ip), vehicle: Klucel (hydroxypropylcellulose) (HPC)",98 % of control
Cc1ccc(C23CC4CC(CC(C4)C2)C3)cc1,T/C,[1],101 % of control
same,T/C,[15],93 % of control
same,T/C,[16],96 % of control
O=C(O)c1cc(-c2ccc(Cl)cc2)nc2c(Cl)cc(Cl)cc12,T/C,[18],101 % of control
same,T/C,"endpoint: mean survival time, dose: 200.0 mg/kg/injection, schedule: Q01DX001 (ip), vehicle: saline",97 % of control
same,T/C,"endpoint: mean survival time, dose: 400.0 mg/kg/injection, schedule: Q01DX001 (ip), vehicle: saline",100 % of control
COC(=O)CC1(C(=O)OC)NC(=O)c2cc(OC)c(Cl)cc2N1 (stereo not drawn),T/C,[6],88 % of control
same,T/C,[8],96 % of control
same,T/C,[9],94 % of control
same,T/C,[11],96 % of control
same,T/C,[12],95 % of control
same,T/C,[14],86 % of control
COC(=O)CCNc1ccccc1,T/C,"endpoint: mean survival time, dose: 100.0 mg/kg/injection, schedule: Q01DX001 (ip), vehicle: Klucel (hydroxypropylcellulose) (HPC)",101 % of control
same,T/C,[2],100 % of control
same,T/C,"endpoint: mean survival time, dose: 200.0 mg/kg/injection, schedule: Q01DX001 (ip), vehicle: Klucel (hydroxypropylcellulose) (HPC)",101 % of control
same,T/C,[3],96 % of control
same,T/C,"endpoint: mean survival time, dose: 400.0 mg/kg/injection, schedule: Q01DX001 (ip), vehicle: Klucel (hydroxypropylcellulose) (HPC)",96 % of control
same,T/C,[4],96 % of control
CC(=O)COc1ccccc1[N+](=O)[O-],T/C,[6],108 % of control
same,T/C,[9],104 % of control
same,T/C,[12],112 % of control
CCC[CH2][Sn]1([CH2]CCC)[N](S(=O)(=O)c2ccc(C)cc2)c2ccccc2[N]1S(=O)(=O)c1ccc(C)cc1,T/C,"endpoint: mean survival time, dose: 3.13 mg/kg/injection, schedule: Q04DX002 (ip), vehicle: saline with Tween-80",94 % of control
same,T/C,"endpoint: mean survival time, dose: 6.25 mg/kg/injection, schedule: Q04DX002 (ip), vehicle: saline with Tween-80",102 % of control
same,T/C,[1],94 % of control
CN(C)CCc1ccc(O)cc1,T/C,"endpoint: mean survival time, dose: 25.0 mg/kg/injection, schedule: Q01DX001 (ip), vehicle: saline",103 % of control
same,T/C,"endpoint: mean survival time, dose: 50.0 mg/kg/injection, schedule: Q01DX001 (ip), vehicle: saline",105 % of control
same,T/C,[18],98 % of control and 100 % of control
same,T/C,[7],97 % of control
same,T/C,[2],102 % of control
same,T/C,[10],102 % of control
same,T/C,[3],96 % of control
same,T/C,[13],101 % of control
same,T/C,[4],104 % of control
OCC1OC(c2ccccc2)OC(CO)C(O)C1O (stereo not drawn),T/C,[17],96 % of control
same,T/C,[7],98 % of control
same,T/C,[10],94 % of control
CCC(=O)OCCn1c2ccccc2c2c(C)c3cnccc3c(C)c21,T/C,[7],110 % of control
same,T/C,[2],102 % of control
same,T/C,[3],107 % of control
same,T/C,[13],154 % of control
same,T/C,[4],123 % of control
